Here are results for one compound from patent publication US12496306B2 (REMEDY PHARMACEUTICALS, INC., priority 2021, dated 2025).

SMILES strings stand for the structures. Where only a bound is given, the exact number is not on record here.

The data set is described as follows: Compounding experiments, bulk solution stability in Tris buffer. Particulars: 1 mg/ml, at least 24 h, room temperature. It counts as physicochemical. An excerpt:
This is because Tris buffers effectively in the range of pH 7-9 (i.e. ±1 pH unit from pKa of 8.1). Outside of this pH range, the bulk solution is no longer buffered even with the addition of Tris. To maintain bulk solution stability, it is necessary to increase the compounding pH above 9, which is outside of the buffering range of Tris.

As for `COc1ccc(Cl)cc1C(=O)NCCc1ccc(S(=O)(=O)NC(=O)NC2CCCCC2)cc1` [glibenclamide, 5-chloro-N-(4-[N-(cyclohexylcarbamoyl)sulfamoyl]phenethyl)-2-methoxybenzamide], the “minimum compounding pH required to maintain bulk solution stability” value is at least 9.1.
